Data reported in patent US9296760B2, “Antibacterial compounds” (JANSSEN SCIENCES IRELAND UC, priority 2012, dated 2016).
≈ marks a conversion by molar mass, not a printed value.

Legend:
[1] = target: T1, S. aureus ATCC 29213 FabI (Staphylococcus aureus, UniProt Q6GI75); test: Staphylococcus aureus FabI enzyme inhibition assay; format: biochemical; conditions: NADH consumption, 30 minutes, read-out: FabI (300.235) IC50 (converted)
T1 sequence (Q6GI75 1-256): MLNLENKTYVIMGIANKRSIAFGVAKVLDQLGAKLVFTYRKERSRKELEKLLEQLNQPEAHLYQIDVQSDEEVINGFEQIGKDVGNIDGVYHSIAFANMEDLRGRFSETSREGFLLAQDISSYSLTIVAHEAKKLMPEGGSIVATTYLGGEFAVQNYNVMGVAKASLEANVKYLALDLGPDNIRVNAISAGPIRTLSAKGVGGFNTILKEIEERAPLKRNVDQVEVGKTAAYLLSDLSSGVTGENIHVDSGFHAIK
Experimental: Y.1 FabI Enzyme Inhibition: Staphylococcus aureus FabI Enzyme Inhibition Assay
FabI enzyme inhibition assays were carried out in half-area, 384-well microtitre plates. […] The reaction mixtures were incubated for 30 minutes at room temperature and the reaction was stopped by adding 200 mM Tris buffer (pH 9.0) to create a pH-shift. The consumption of NADH was monitored by measuring the change in absorbance at […]. By comparing sample readings to those of negative (absence of compound) and positive (absence of enzyme) controls, the percent inhibition of enzymatic activity of the compounds was determined A best-fit curve is fitted by a minimum of squares method. From this an IC50-value (expressed in μg/ml), resulting in 50% inhibition of enzymatic activity, was obtained.

[2] = test system: Staphylococcus aureus ATCC 29213; test: Antibacterial susceptibility testing, IC90 determination (broth microdilution, resazurin); format: cell-based; conditions: Staphylococcus aureus, ATCC29213, S. aureus ATCC 29213; 90% inhibitory concentration for bacterial growth; read-out: STA (361.159) IC90
Experimental: Y.2 In Vitro Method for Testing Compounds for Antibacterial Activity Against Various Bacterial Strains
Preparation of Bacterial Suspensions for Susceptibility Testing
The following bacteria were used: Staphylococcus aureus ATCC 29213, methicillin-resistant Staphylococcus aureus (MRSA) ATCC 700788 and Escherichia coli ATCC 35218. The bacteria used in this study were grown overnight in flasks containing 100 ml Mueller-Hinton broth (Difco cat. nr. 0757-17) in sterile de-ionized water, with shaking, at 37° C. Stocks were store at −70° C. until use.
Bacteria were incubated on a tryptic soy agar plate containing 5% sheep blood (Becton Dickinson cat. nr. 254053) for 18-24 hours at 35° C. in aerobic conditions (first passage). For the second passage, fresh Mueller-Hinton broth is inoculated with 5-10 colonies and grown overnight at 35° C. until turbidity (reaching log-phase) in aerobic conditions is reached. The bacterial suspension is then adjusted to 0.5 McFarland density and further diluted 1:100 in Mueller Hinton broth medium. This is used as inoculum.
The result(s) are depicted the table below (for STA ATCC 29213).
Antibacterial Susceptibility Testing: IC90 Determination
(§1) MIC assays were performed by the broth microdilution method in a 96-well format (flat-bottom microtitre plates) with a final volume of 0.1 ml Mueller Hinton broth containing two-fold serial dilutions of compounds and inoculated with 5×10^5 CFU/ml of bacteria (standard inoculum size according to CLSI guidelines). Inhibitors are typically varied over the range of 63 to 0.49 μM. The final DMSO concentration in the assay was 1.25% (maximum tolerable DMSO concentration=6%). In the assays where the effect of human serum on the activity of the compounds against S. aureus was tested, human serum was added at a final concentration of 10%. The plates were incubated at 35° C. for 16-20 hours. At the end of incubation the bacterial growth was quantified fluorometrically. For this, resazurin was added to all wells and the plates were re-incubated. The incubation time is dependent on the type of bacteria. A change in color from blue to pink indicated the growth of bacteria. The fluorescence was read in computer-controlled fluorometer (Fluoroskan Ascent FL, Labsystems) at an excitation wavelength 540 nm and an emission wavelength of 590 nm. The % growth inhibition achieved by the compounds was calculated according to standard methods. The IC90 (expressed in μg/ml) was defined as the 90% inhibitory concentration for bacterial growth. A panel of reference compounds were simultaneously tested for QC approval.

S. aureus = test: Antibacterial susceptibility testing, IC90 determination with 10% human serum; format: cell-based, Staphylococcus aureus; conditions: Staphylococcus aureus, S. aureus with human serum at final concentration of 10%; read-out: STA + 10% HS (361.169) IC90
Experimental: as §1, with “Antibacterial Susceptibility Testing: IC90 Determination MIC” for “MIC”, “approval. The results are depicted in the table(s) below (STA+10% HS).” for “approval.”

Cytotoxicity MTT assay = format: cell-based, Human; conditions: human, HelaM cells, read-out: HELAM (222.125) CC50
Experimental: Cytotoxicity of the compounds was evaluated using the MTT assay. Human HelaM cells grown in 96-well plates were exposed to serial dilutions of the tested compounds (final volume of 0.2 ml) and incubated for 72 hours at 37° C. and 5% CO2 Inhibitors are typically varied over the range of 25 to 0.8 μM. The final DMSO concentration in the assay is 0.5%. MTT (3-(4,5-Dimethylthiazol-2-yl)-2,5-diphenyltetrazolium bromide, a tetrazole) was added and reduced to purple formazan only in living cells. Solubilization of the formazan crystals was achieved by adding 100 μl 2-propanol. Cell viability was determined by measuring the absorbance of the reduced formazan, giving a purple color, at 540 nm and 690 nm. The absorbance measured at 690 nm was automatically subtracted from the absorbance at 540 nm, to eliminate the effects of non-specific absorption. The percent cytotoxicity achieved by the compounds was calculated according to standard methods. Cytotoxicity is reported as CC50, the concentration that causes a 50% reduction in cell viability.
The results are depicted in the table(s) below (HELAM).

Row | SMILES | melting point | IC50 [1] | IC90 [2] | IC90 (S. aureus) | CC50 at 72 h (Cytotoxicity MTT assay)
1 | O=C1Nc2ncc(/C=C/C(=O)N3CCC=C(c4ccccc4)CC3)cc2CN2CCSCC12 (centres unmarked) [Compound K1] | 224 °C | – | – | – | –
2 | O=C(Nc1ccc(/C=C/C(=O)N2CCC=C(c3ccccc3)CC2)cn1)c1cccnc1 [compound 1] | 186 °C | 730 nM | 0.4 µg/mL (≈ 0.942 µM) | 0.84 µg/mL | 0.43 µg/mL (≈ 1.01 µM)
3 | O=C(Nc1ccc(/C=C/C(=O)N2CCC=C(c3ccccc3)CC2)cn1)c1ccoc1 [compound 2] | 156 °C | 1190 nM | 0.44 µg/mL (≈ 1.06 µM) | 1.43 µg/mL | > 10.4 µg/mL
4 | COc1ccc(F)cc1C1=CCCN(C(=O)/C=C/c2ccc(NC(=O)c3cccnc3)nc2)CC1 [compound 3] | 122 °C | 1630 nM | 0.45 µg/mL (≈ 0.952 µM) | 1.68 µg/mL | 1.13 µg/mL (≈ 2.39 µM)
5 | Cn1cc(C(=O)Nc2ccc(/C=C/C(=O)N3CCC=C(c4ccccc4)CC3)cn2)cn1 [compound 4] | – | 1400 nM | 0.63 µg/mL (≈ 1.47 µM) | 1.66 µg/mL | 3.94 µg/mL (≈ 9.22 µM)
6 | COc1ccc(F)cc1C1=CCCN(C(=O)/C=C/c2ccc(NC(=O)c3cncc(C)c3)nc2)CC1 [compound 5] | 120 °C | 1790 nM | 0.66 µg/mL (≈ 1.36 µM) | 2.83 µg/mL | 7.8 µg/mL (≈ 16 µM)
7 | CC(=O)Nc1ccc(/C=C/C(=O)N2CCC=C(c3ccccc3)CC2)cn1 [compound 6] | 152 °C | ~802 nM | 0.69 µg/mL (≈ 1.91 µM) | 1.9 µg/mL | > 9.08 µg/mL
8 | O=CNc1ccc(/C=C/C(=O)N2CCC=C(c3ccccc3)CC2)cn1 [compound 7] | – | 662 nM | 0.78 µg/mL (≈ 2.25 µM) | 1.25 µg/mL | 7.18 µg/mL (≈ 20.7 µM)
9 | CC1(C(=O)Nc2ccc(/C=C/C(=O)N3CCC=C(c4ccccc4)CC3)cn2)CC1 [compound 15] | – | ~1070 nM | 2.84 µg/mL (≈ 7.07 µM) | 11.8 µg/mL | 6.59 µg/mL (≈ 16.4 µM)

Continued, in another order:

Row | melting point | IC50 [1] | IC90 [2] | IC90 (S. aureus) | SMILES | CC50 at 72 h (Cytotoxicity MTT assay)
10 | – | 3010 nM | 13.3 µg/mL (≈ 41.7 µM) | > 20.1 µg/mL | Nc1ccc(/C=C/C(=O)N2CCC=C(c3ccccc3)CC2)cn1 [compound 23] | 5.3 µg/mL (≈ 16.6 µM)
11 | – | 5260 nM | 21 µg/mL (≈ 58.2 µM) | > 22.8 µg/mL | CC(C)Nc1ccc(/C=C/C(=O)N2CCC=C(c3ccccc3)CC2)cn1 [compound 24] | > 9.08 µg/mL
12 | – | 2030 nM | > 25.5 µg/mL | > 25.5 µg/mL | CC(C)(C)C(=O)Nc1ccc(/C=C/C(=O)N2CCC=C(c3ccccc3)CC2)cn1 [compound 25] | 6.32 µg/mL (≈ 15.7 µM)
13 | – | 1390 nM | > 25.5 µg/mL | > 25.5 µg/mL | CC(C)CC(=O)Nc1ccc(/C=C/C(=O)N2CCC=C(c3ccccc3)CC2)cn1 [compound 26] | 3.77 µg/mL (≈ 9.34 µM)
14 | – | 2100 nM | > 26.8 µg/mL | > 26.8 µg/mL | O=C(Nc1ccc(/C=C/C(=O)N2CCC=C(c3ccccc3)CC2)cn1)c1ccccn1 [compound 27] | 3.83 µg/mL (≈ 9.02 µM)
15 | – | 1200 nM | > 26.8 µg/mL | 26.2 µg/mL | O=C(Nc1ccc(/C=C/C(=O)N2CCC=C(c3ccccc3)CC2)cn1)c1cnccn1 [compound 28] | > 10.7 µg/mL
16 | – | 3100 nM | > 27.1 µg/mL | > 27.1 µg/mL | O=C(Nc1ccc(/C=C/C(=O)N2CCC=C(c3ccccc3)CC2)cn1)C1CCCCC1 [compound 29] | 3.15 µg/mL (≈ 7.33 µM)
17 | – | ~1760 nM | 27.7 µg/mL (≈ 66.3 µM) | 33.3 µg/mL | O=C(Nc1ccc(/C=C/C(=O)N2CCC=C(c3ccccc3)CC2)cn1)C1CCCO1 (centres unmarked) [compound 30] | 11 µg/mL (≈ 26.4 µM)
18 | – | 686 nM | 0.48 µg/mL (≈ 1.03 µM) | 0.66 µg/mL | CS(=O)(=O)N1CC(=O)Nc2ncc(/C=C/C(=O)N3CCC=C(c4ccccc4)CC3)cc2C1 [compound 37] | 2.04 µg/mL (≈ 4.37 µM)
19 | – | 743 nM | 0.51 µg/mL (≈ 1.18 µM) | 0.75 µg/mL | CC(=O)N1CC(=O)Nc2ncc(/C=C/C(=O)N3CCC=C(c4ccccc4)CC3)cc2C1 [compound 39] | > 10.8 µg/mL
20 | – | ~1510 nM | 0.77 µg/mL (≈ 1.66 µM) | 3.33 µg/mL | O=C1CN(c2ccccc2)Cc2cc(/C=C/C(=O)N3CCC=C(c4ccccc4)CC3)cnc2N1 [compound 42] | 11.7 µg/mL (≈ 25.1 µM)
21 | – | 1110 nM | < 0.26 µg/mL | 0.46 µg/mL | COc1ccc(F)cc1C1=CCCN(C(=O)/C=C/c2cnc3c(c2)CN2CCN(C(C)=O)CC2C(=O)N3)CC1 (centres unmarked) [compound 48] | > 13.4 µg/mL
